{"source": "patent US9206237B2", "about": "“Cystine knot peptides that bind alpha-V-beta-6 integrin” (priority 2011, dated 2015)", "origin": "cited, not measured here", "key": {"alpha-v-beta-6 [1]": {"target": "T1, alpha-v-beta-6 (Homo sapiens, UniProt P06756+P18564)", "conditions": "read-out: IC50, cell adhesion assays"}, "alpha-v-beta-6 [2]": {"target": "T1, alpha-v-beta-6", "conditions": "inhibition of RGD-dependent ligand binding; read-out: IC50, isolated receptor assays"}}, "note": "Like-named read-outs stand apart in the source and are kept apart here.", "data": [{"sequence": "RTDLDSLRTYTL", "values": [{"measurement": "IC50", "setting": "alpha-v-beta-6 [1]", "value": 50, "unit": "µM"}, {"measurement": "IC50", "setting": "alpha-v-beta-6 [2]", "value": 0.02, "unit": "µM"}]}]}
